Test results as given in US8758730B2, “Compositions, use and method for the use of surface active proteins in topical drug delivery across keratin” (B.R.A.I.N. Biotechnology Research and Information Network AG, priority 2009, dated 2014).

What was measured:
[1] = type: in vitro ADME
Description: A formulation with one enhancer, Trichoderma reesei hydrophobin HFBII (isolation see […]., Aro, […]. and […]. 1997, Differential expression of the vegetative and spore-bound hydrophobins of Tricoderma reesei, Cloning and characterization of the hfb2 gene. Eur. J. […] As ethanol is a potential solvent for substances poorly soluble in water and prevents from microbiological growth, a better or a similar permeability is desirable. […] With this caffeine-concentration the solution was nearly saturated. This was intended to achieve a faster steady state according to the highest concentration gradient possible. Phosphate buffered saline (PBS) was prepared with a pH of 7.4. Both pH and osmolality of PBS simulated in the Franz diffusion cell's acceptor chamber the physiological conditions of blood (a systemic buffer system). The water used for the formulations and PBS was freshly produced, double distilled and filtered. Healthy nails for the permeability experiments were obtained from the Institute of Anatomy of the University of Basel and from the Institute of Anatomy of the University of Freiburg, Germany. […] The concentrations of the samples were measured with UV-spectrophotometry. Flux and permeation coefficients were calculated with the values after 48 hours, as in this time a steady state was obtained.

[2] = Nail penetration study with Terbinafine (example 1a); type: in vitro ADME; conditions: reference solution: 10% (w/v) Terbinafine in 60% (v/v) ethanol/water, no hydrophobin; average of 3
Protocol: Healthy nails for the permeability experiments were obtained from the Institute of Anatomy of the University of Basel and from the Institute of Anatomy of the University of Freiburg, Germany. Franz Diffusion Cells (SES GmbH—Analysesysteme, Bechenheim, Germany) with a diffusion area of 0.785 cm^2 were used. […] Subsequently, they were mounted in the diffusion cells in an appropriate manner. The acceptor chamber below the nail was filled with 5 ml PBS. The formulation (400 μl) was applied onto the nail. In order to keep the temperature in the system constant, the glass cells were tempered by a water jacket kept at 32°. The acceptor chambers were stirred with a magnetic stirrer at 400 rpm. The openings for the formulations and the extensions for taking samples were covered with Parafilm (film comprising paraffin wax and polyethene; American National Can Company, USA). A sample of 400 μl was taken from each cell twice a day and replaced with the same amount of PBS warmed to 32° C. […] The concentrations of the samples were measured with UV-spectrophotometry. Flux and permeation coefficients were calculated with the values after 48 hours, as in this time a steady state was obtained. […]

[3] = tested on: cells in the skin model (EST-1000); type: cell-based; conditions: human, 48 h, 1 %
Protocol: Cytotoxicity of the test samples on the skin culture was determined by MTT-assay according to the instructions of the skin model provider. The viability of the cells in the skin model was not influenced by the solvents (50% ethanol, 0.002% SDS) as compared to cultures treated with PBS only. A viability of about 50% of that of the control cultures was observed when 1% caffeine or 1% caffeine/10 μg hydrophobin (SC3 or HFB II, respectively) were applied on the skin culture, showing that hydrophobin itself was not cytotoxic at a concentration of 200 μg/ml. The barrier function of the skin model is probably not influenced profoundly by the reduced viability of the cells, since the upper layer keratinocytes comprises non living cells.

[4] = type: in vitro ADME, human
Protocol: The penetration of caffeine through the skin was measured using a human epidermal skin model (EST-1000, Cell Systems, St. Katharinen, Germany). The in vitro model for human skin consists of a robust multilayer three-dimensional cell culture, which has been grown for 14 days and has skin-like properties. The cellular structure of EST-1000 resembles that of the natural epidermis showing a base membrane, proliferating keratinocytes and stratum corneum with an intact barrier function. The tissues were provided in cell culture inserts with a polycarbonate membrane with 0.63 cm^2 surface area and 0.4 μm pore size. The membranes were covered completely by the cells and show a matte white, dry surface after complete differentiation. The inserts were handled easily by the use of a sterile forceps. Upon delivery, the skin inserts were equilibrated by placing each insert into a well of a 6-well cell culture dish containing 1 ml of maintenance medium (provided by Cell Systems). After 4-12 hours of equilibration the test substance was applied on the dry surface of the skin model. Penetration of substances applied onto the surface of the skin culture through the skin model was measured by sampling the medium surrounding the insert and detecting the concentration of the test substance, here caffeine. […] Caffeine was purchased from Sigma and applied in a concentration of 10 mg/ml (1% w/v). […]

## C[S+](C)[O-] [DMSO, dimethylsulfoxide]
[1]
  Enhancement factor (EF) in 20% (v/v) EtOH/water: 3.25

## CN(C/C=C/C#CC(C)(C)C)Cc1cccc2ccccc12 [Terbinafine]
[2]
  Cumulated amount of Terbinafine penetrated through nail after 10 days: ~12 mg/cm2

## Cn1c(=O)c2c(ncn2C)n(C)c1=O [caffeine]
[3]
  Viability relative to control cultures (MTT): about 50%

B1: SC3: class I hydrophobin of 112 amino acids from Schizophyllum commune, accession P16933 (protein, UniProt P16933 25-136, looked up)
Class I hydrophobin SC3: GGHPGTTTPPVTTTVTVTTPPSTTTIAAGGTCTTGSLSCCNQVQSASSSPVTALLGLLGIVLSDLNVLVGISCSPLTVIGVGGSGCSAQTVCCENTQFNGLINIGCTPINIL
[4]
  Enhancement of penetration of caffeine (1% w/v) through in vitro model of human skin: up to 21.5%
